From publication PMC3914206

Experiments:
Type in all cases: binding
Conditions in all cases: Compound Concentration 10 µM
panel of 442 kinases [1] = biological target: T1, panel of 442 kinases (Homo sapiens, UniProt P07949, M918T)
T1 construct: purchased KINOMEscan
Description: (§1) We assessed the selectivity of members of this scaffold using the KINOMEscan methodology across a near comprehensive panel of 442 kinases [[18,27]].

panel of 442 kinases [2] = biological target: T2, panel of 442 kinases (Homo sapiens, UniProt P42336, E545K)
T2 construct: purchased KINOMEscan
Description: as §1

panel of 442 kinases [3] = biological target: T3, panel of 442 kinases (Homo sapiens, UniProt Q99759)
T3 construct: purchased KINOMEscan
T3 sequence (Q99759 1-626): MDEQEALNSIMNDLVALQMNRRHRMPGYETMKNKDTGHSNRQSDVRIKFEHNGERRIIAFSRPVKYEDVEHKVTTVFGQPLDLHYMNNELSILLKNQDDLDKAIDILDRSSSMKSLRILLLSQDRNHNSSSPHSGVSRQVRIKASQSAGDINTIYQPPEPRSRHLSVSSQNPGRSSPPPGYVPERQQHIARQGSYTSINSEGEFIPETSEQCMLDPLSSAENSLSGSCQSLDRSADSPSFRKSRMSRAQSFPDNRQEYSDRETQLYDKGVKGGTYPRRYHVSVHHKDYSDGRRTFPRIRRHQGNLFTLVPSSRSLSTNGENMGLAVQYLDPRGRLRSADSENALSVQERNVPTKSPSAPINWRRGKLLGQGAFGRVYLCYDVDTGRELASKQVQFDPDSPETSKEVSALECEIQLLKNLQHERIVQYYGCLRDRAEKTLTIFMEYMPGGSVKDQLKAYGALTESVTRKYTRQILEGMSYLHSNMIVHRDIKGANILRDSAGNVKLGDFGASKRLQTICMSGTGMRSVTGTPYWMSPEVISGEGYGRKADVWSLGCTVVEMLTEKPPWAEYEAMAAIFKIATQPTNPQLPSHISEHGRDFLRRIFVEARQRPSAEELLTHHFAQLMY
Description: as §1

T1 sequence (P07949 29-1114 M918T): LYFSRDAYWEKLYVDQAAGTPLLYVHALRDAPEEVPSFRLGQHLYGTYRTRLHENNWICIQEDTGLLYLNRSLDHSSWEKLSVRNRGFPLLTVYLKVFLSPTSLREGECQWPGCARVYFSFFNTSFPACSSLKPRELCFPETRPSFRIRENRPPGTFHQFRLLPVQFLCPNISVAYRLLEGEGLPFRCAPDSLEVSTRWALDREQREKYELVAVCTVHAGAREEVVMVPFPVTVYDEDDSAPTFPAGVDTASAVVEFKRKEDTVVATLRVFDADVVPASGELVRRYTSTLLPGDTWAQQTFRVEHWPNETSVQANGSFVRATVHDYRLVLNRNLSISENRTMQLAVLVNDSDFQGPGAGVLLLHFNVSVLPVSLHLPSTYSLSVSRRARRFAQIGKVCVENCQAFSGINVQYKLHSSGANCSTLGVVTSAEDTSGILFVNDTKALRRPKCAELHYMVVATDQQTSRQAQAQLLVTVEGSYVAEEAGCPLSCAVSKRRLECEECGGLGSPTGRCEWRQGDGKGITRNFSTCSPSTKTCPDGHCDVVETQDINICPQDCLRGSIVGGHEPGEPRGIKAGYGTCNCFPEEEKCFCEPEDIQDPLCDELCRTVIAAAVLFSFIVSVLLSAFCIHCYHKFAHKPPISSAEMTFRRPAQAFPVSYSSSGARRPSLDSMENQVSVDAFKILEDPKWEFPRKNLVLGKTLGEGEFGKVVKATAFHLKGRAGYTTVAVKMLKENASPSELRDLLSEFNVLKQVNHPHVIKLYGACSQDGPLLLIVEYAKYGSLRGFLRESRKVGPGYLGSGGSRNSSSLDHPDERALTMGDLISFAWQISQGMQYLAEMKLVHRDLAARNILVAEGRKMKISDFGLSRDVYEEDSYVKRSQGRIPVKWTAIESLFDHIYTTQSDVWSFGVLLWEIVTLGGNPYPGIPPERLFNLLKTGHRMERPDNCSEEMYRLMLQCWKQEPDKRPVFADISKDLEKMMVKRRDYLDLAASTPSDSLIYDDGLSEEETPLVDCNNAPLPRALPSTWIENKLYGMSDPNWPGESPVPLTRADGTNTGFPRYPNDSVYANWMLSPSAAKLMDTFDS
T2 sequence (P42336 whole entry E545K): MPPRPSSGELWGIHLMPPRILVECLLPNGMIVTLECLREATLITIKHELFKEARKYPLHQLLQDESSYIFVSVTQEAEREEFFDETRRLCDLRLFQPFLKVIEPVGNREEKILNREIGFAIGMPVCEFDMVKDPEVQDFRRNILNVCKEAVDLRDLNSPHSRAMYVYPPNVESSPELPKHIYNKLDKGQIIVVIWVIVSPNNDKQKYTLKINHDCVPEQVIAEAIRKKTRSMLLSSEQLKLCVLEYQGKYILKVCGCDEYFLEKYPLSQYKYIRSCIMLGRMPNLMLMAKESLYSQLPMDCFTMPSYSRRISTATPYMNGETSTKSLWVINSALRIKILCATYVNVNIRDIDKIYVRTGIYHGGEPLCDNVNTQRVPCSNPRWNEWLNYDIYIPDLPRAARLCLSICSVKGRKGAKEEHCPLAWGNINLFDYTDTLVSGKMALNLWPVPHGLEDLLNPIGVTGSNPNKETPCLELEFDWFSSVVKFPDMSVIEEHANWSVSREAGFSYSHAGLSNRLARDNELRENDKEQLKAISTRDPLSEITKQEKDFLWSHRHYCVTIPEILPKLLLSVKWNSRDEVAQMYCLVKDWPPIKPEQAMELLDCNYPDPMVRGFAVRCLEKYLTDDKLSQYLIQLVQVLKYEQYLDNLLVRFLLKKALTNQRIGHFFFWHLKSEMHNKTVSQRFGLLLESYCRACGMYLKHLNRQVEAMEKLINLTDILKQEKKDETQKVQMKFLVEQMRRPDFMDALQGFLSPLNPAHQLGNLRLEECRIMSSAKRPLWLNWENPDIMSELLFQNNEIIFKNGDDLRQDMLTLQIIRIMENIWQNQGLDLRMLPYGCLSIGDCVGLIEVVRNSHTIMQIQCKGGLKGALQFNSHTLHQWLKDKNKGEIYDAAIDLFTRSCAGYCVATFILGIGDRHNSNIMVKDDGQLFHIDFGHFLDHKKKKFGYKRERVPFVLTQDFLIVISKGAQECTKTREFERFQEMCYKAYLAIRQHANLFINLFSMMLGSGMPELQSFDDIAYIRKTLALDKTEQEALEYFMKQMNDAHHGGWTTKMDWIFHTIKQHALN

Compound | KINOMEscan: RET(M918T) (panel of 442 kinases [1]) | KINOMEscan: PIK3CA(E545K) (panel of 442 kinases [2]) | KINOMEscan: MAP3K3 (panel of 442 kinases [3])
COc1cc(C(=O)N2CCC(N3CCN(C)CC3)CC2)ccc1Nc1ncc2c(n1)N(C)c1ccccc1C(=O)N2C [15 (LRRK2-IN-1)] | 100 | 100 | 97
COc1cc(C(=O)N2CCC(N3CCN(C)CC3)CC2)ccc1Nc1ncc2c(n1)N1CCc3cccc(c31)C(=O)N2C [Compound 24] | 81 | – | 98
COc1cc(C(=O)N2CCC(N3CCN(C)CC3)CC2)ccc1Nc1ncc2c(n1)N(C1CCCC1)c1ccccc1C(=O)N2C [Compound 25, 11-cyclopentyl-2-((2-methoxy-4-(4-(4-methylpiperazin-1-yl)piperidine-1-carbonyl)phenyl)amino)-5-methyl-5H-benzo[e]pyrimido[5,4-b][1,4]diazepin-6(11H)-one] | 94 | 100 | 100
CCOc1cc(C(=O)N2CCC(N3CCN(C)CC3)CC2)ccc1Nc1ncc2c(n1)N(C1CCCC1)c1ccccc1C(=O)N2C [Compound 26] | 100 | 100 | 100
